The source of these data is ChEMBL document CHEMBL4184139, “Adamantyl- and other polycyclic cage-based conjugates of desferrioxamine B (DFOB) for treating iron-mediated toxicity in cell models of Parkinson's disease” (Bioorg Med Chem Lett, 2017).

pEC50: −log10 of the molar value. Calls of active or inactive are those of the source. No cut-off for these calls is given here.

Data set [1] is described as follows: Octanol-water partition coefficient, log P of the compound at 1 mg by RP-HPLC analysis. It is filed as physicochemical.
The test system of data set [2] is SK-N-BE(2)-M17. In words: Cytoprotection against PQ-induced cell death in human SK-N-BE(2)-M17 cells assessed as increase in cell viability at 100 uM pretreated for 2 hrs followed by 1 mM PQ addition measured after 24 hrs by MTT assay. Format: functional, cell-based. (In general: Tetrazolium dyes change colour on reduction, which living cells bring about.)
The test system of data set [3] is SK-N-BE(2)-M17. Kind of data set: Cytoprotection against PQ-induced cell death in human SK-N-BE(2)-M17 cells assessed as increase in cell viability at 100 uM pretreated for 2 hrs followed by 1 mM PQ addition measured after 24 hrs by LDH assay. It is filed as functional, cell-based.
The subject of data set [4] is SK-N-BE(2)-M17. Kind of data set: Cytoprotection against H2O2-induced cell death in human SK-N-BE(2)-M17 cells assessed as increase in cell viability at 100 uM pretreated for 2 hrs followed by 1 mM H2O2 addition measured after 24 hrs by MTT assay. It is filed as functional, cell-based.
The subject of data set [5] is SK-N-BE(2)-M17. In words: Cytoprotection against H2O2-induced cell death in human SK-N-BE(2)-M17 cells assessed as increase in cell viability at 100 uM pretreated for 2 hrs followed by 1 mM H2O2 addition measured after 24 hrs by LDH assay. Format: functional, cell-based.
Data set [6] has as its system SK-N-BE(2)-M17. Kind of data set: Cytoprotection against PQ-induced cell death in human SK-N-BE(2)-M17 cells assessed as increase in cell viability at 100 uM treated 2 hrs post 2 mM PQ treatment measured after 24 hrs by MTT assay. Format: functional, cell-based.
The test system of data set [7] is SK-N-BE(2)-M17. Kind of data set: Cytoprotection against PQ-induced cell death in human SK-N-BE(2)-M17 cells assessed as increase in cell viability at 100 uM treated 2 hrs post 2 mM PQ treatment measured after 24 hrs by LDH assay. It is filed as functional, cell-based.
Data set [8] concerns SK-N-BE(2)-M17. Kind of data set: Cytoprotection against H2O2-induced cell death in human SK-N-BE(2)-M17 cells assessed as increase in cell viability at 100 uM treated 2 hrs post 0.8 mM H2O2 treatment measured after 24 hrs by MTT assay. It is filed as functional, cell-based.
The subject of data set [9] is SK-N-BE(2)-M17. In words: Cytoprotection against H2O2-induced cell death in human SK-N-BE(2)-M17 cells assessed as increase in cell viability at 100 uM treated 2 hrs post 0.8 mM H2O2 treatment measured after 24 hrs by LDH assay. It is filed as functional, cell-based.
The test system of data set [10] is SK-N-BE(2)-M17. Kind of data set: Cytoprotection against PQ-induced cell death in human SK-N-BE(2)-M17 cells assessed as increase in cell viability treated 2 hrs post 2 mM PQ treatment measured after 24 hrs by MTT assay. Format: functional, cell-based.
The test system of data set [11] is Astrocyte. In words: Cytoprotection against H2O2-induced cell death in BSO pretreated C57BL6/J mouse brain primary astrocytes assessed as increase in cell viability at 10 uM pretreated for 2 hrs followed by H2O2 addition measured after 24 hrs by MTT assay. Format: functional, cell-based.
For data set [12], the system named is Astrocyte. Kind of data set: Cytoprotection against H2O2-induced cell death in BSO pretreated C57BL6/J mouse brain primary astrocytes assessed as increase in cell viability at 10 uM pretreated for 2 hrs followed by H2O2 addition measured after 24 hrs by LDH release assay. It is filed as functional, cell-based. (LDH in the medium is a marker of cell lysis.)

Data set [13] can be described thus: Binding affinity to Fe3+ in ferric ammonium citrate loaded C57BL6/J mouse brain primary astrocytes assessed as iron depletion at 100 uM treated 2 hrs post 125 uM FAC loading measured after 2 hrs by ICP-MS analysis. It is filed as cell-based.
The test system of data set [14] is SK-N-BE(2)-M17. Kind of data set: Cytotoxicity against human SK-N-BE(2)-M17 cells at 100 uM 24 hrs by MTT assay. Format: cell-based. The conditions noted are these: sk-n-be(2)-m17, 24 h.
Data set [15] deals with SK-N-BE(2)-M17. Kind of data set: Cytotoxicity against human SK-N-BE(2)-M17 cells at 100 uM 24 hrs by LDH release assay. It is filed as cell-based. The conditions noted are these: sk-n-be(2)-m17, 24 h.
The nature of data set [16]: Binding affinity to Fe3+ assessed as [M+H]+ adduct formation by LC-MS/MS analysis.
Data set [17] is described as follows: Binding affinity to Fe3+ assessed as [M+2H]+ adduct formation by LC-MS/MS analysis.
Data set [18] in a line: Binding affinity to Fe3+ assessed as change in retention time for compound-Fe3+ complex by RP-HPLC analysis relative to free ligand.
For data set [19], the system named is SK-N-BE(2)-M17. In words: Cytoprotection against PQ-induced cell death in human SK-N-BE(2)-M17 cells assessed as increase in cell viability at 100 uM treated post 200 uM Fecl3 and 1 mM PQ treatment measured after 24 hrs by MTT assay. Format: functional, cell-based.
Data set [20] concerns SK-N-BE(2)-M17. In words: Cytoprotection against PQ-induced cell death in human SK-N-BE(2)-M17 cells assessed as increase in cell viability at 100 uM treated post 200 uM Fecl3 and 1 mM PQ treatment measured after 24 hrs by LDH assay. It is filed as functional, cell-based.
The subject of data set [21] is SK-N-BE(2)-M17. In words: Cytoprotection against PQ-induced cell death in human SK-N-BE(2)-M17 cells assessed as increase in cell viability up to 1 mM treated 2 hrs post 2 mM PQ treatment by MTT assay. Format: functional, cell-based.
Data set [22] can be described thus: Binding affinity to Fe3+.
A short description of data set [23]: Binding affinity to Fe2+.
Data set [24] has as its system SK-N-BE(2)-M17. In words: Cytoprotection against PQ-induced cell death in human SK-N-BE(2)-M17 cells assessed as increase in cell viability at 1 mM pretreated for 2 hrs followed by 1 mM PQ addition measured after 24 hrs by MTT assay. Format: functional, cell-based.
For data set [25], the system named is SK-N-BE(2)-M17. Kind of data set: Cytoprotection against PQ-induced cell death in human SK-N-BE(2)-M17 cells assessed as increase in cell viability at 1 mM pretreated for 2 hrs followed by 1 mM PQ addition measured after 24 hrs by LDH assay. It is filed as functional, cell-based.
For data set [26], the system named is SK-N-BE(2)-M17. In words: Cytoprotection against H2O2-induced cell death in human SK-N-BE(2)-M17 cells assessed as increase in cell viability at 1 mM pretreated for 2 hrs followed by 1 mM H2O2 addition measured after 24 hrs by MTT assay. It is filed as functional, cell-based.
In data set [27] the test system is SK-N-BE(2)-M17. Kind of data set: Cytoprotection against H2O2-induced cell death in human SK-N-BE(2)-M17 cells assessed as increase in cell viability at 1 mM pretreated for 2 hrs followed by 1 mM H2O2 addition measured after 24 hrs by LDH assay. Format: functional, cell-based.

Broadly, the logP is a log measure of how a compound divides between an organic and an aqueous phase. Higher therefore signals higher lipophilicity. What is called pEC50 is −log10 of the EC50, conventionally taken in molar units. With `CCCCC[C@]12CC[C@@H](CC1)[C@@H](C(=O)NCCCCCN(O)C(=O)CCC(=O)NCCCCCN(O)C(=O)CCC(=O)NCCCCCN(O)C(C)=O)C2` (relative stereo), the logP in [1] came out at 2.82. Moreover, the result in [2], in data set [3], in [4], in data set [5], in [6] and in data set [7] was Active. The outcome in data set [8], in data set [9], in data set [11], in data set [12], in [13] and in data set [16] was Active. The outcome in [17] was Active. In addition, in data set [10], the pEC50 is 5.00. Besides, the Activity entry in data set [14] and in data set [15] was “Non-Toxic” each time. Moreover, the Retention time in data set [18] turned out to be 3.67 min.

As for `CC(=O)N(O)CCCCCNC(=O)CCC(=O)N(O)CCCCCNC(=O)CCC(=O)N(O)CCCCCNC(=O)C12CC3CC(CC1C3)C2`, in [1], the logP worked out at 0.98. Further, the outcome in data set [2], in data set [3], in data set [4], in data set [5], in data set [6] and in data set [8] was Active. Also, the outcome in data set [19], in [11], in data set [16] and in data set [17] was Active. For the same molecule, the pEC50 in [10] is 4.52. In addition, the Activity result in data set [14] and in data set [15] was “Non-Toxic” in each case. For the same molecule, the Retention time in [18] was 0.48 min.

In data set [1], `CC(=O)N(O)CCCCCNC(=O)CCC(=O)N(O)CCCCCNC(=O)CCC(=O)N(O)CCCCCNC(=O)C12CC3CC(C)(CC(C)(C3)C1)C2` yielded a logP of 2.07. The outcome in [2], in data set [3], in data set [4], in data set [5], in data set [6] and in data set [8] was Active. In addition, the result in data set [19], in data set [20], in data set [11], in [12], in data set [16] and in [17] was Active. For the same molecule, in data set [10], the pEC50 was 5.01. In addition, the Activity result in [14] and in data set [15] was “Non-Toxic” in each case. Besides, the Retention time in data set [18] was 1.06 min.

`CC(=O)N(O)CCCCCNC(=O)CCC(=O)N(O)CCCCCNC(=O)CCC(=O)N(O)CCCCCNC(=O)C12CC3(C)CC(C)(CC(C)(C3)C1)C2` returned a logP in data set [1] of 2.54. Also, the outcome in [2], in data set [3], in [4], in data set [5], in data set [6] and in data set [8] was Active. Besides, the outcome in data set [19], in [20], in [11], in [12], in data set [16] and in [17] was Active. Also, the pEC50 in [10] was 5.47. In addition, the Activity result in data set [14] and in data set [15] was “Non-Toxic” throughout. Further, the Retention time in data set [18] was 1.85 min.

The molecule `CC(=O)N(O)CCCCCNC(=O)CCC(=O)N(O)CCCCCNC(=O)CCC(=O)N(O)CCCCCNC(=O)C12CC3CC(CC(C3)C1)C2` registered a logP in data set [1] of 1.32. Further, the outcome in data set [2], in data set [3], in [4], in [5], in data set [6] and in data set [7] was Active. Also, the outcome in data set [8], in data set [9], in data set [19], in data set [20], in data set [11] and in [12] was Active. Also, the result in data set [16] and in data set [17] was Active. Besides, the Activity result in data set [14] and in data set [15] was “Non-Toxic” each time. In addition, the Retention time in [18] was 0.43 min.

With `CC(=O)N(O)CCCCCNC(=O)CCC(=O)N(O)CCCCCNC(=O)CCC(=O)N(O)CCCCCN` [DEFEROXAMINE], in [1], the logP is -2.29. In addition, the result in [21] and in data set [13] was inactive. In addition, the log K in [22] worked out at 30; in data set [23], 8. For the same molecule, the Retention time in data set [18] is -0.52 min. Besides, the outcome in data set [24], in [25], in data set [26] and in data set [27] was Active.

Molecule `CC(=O)N(O)CCCCCNC(=O)CCC(=O)N(O)CCCCCNC(=O)CCC(=O)N(O)CCCCCNC(=O)C1CCCCC1` registered a log partition coefficient (logP) in data set [1] of 0.96. Besides, the outcome in data set [2], in data set [3], in data set [4], in data set [5], in data set [6] and in data set [7] was inactive. Also, the outcome in [8] and in data set [9] was inactive. Moreover, the result in [13], in data set [16] and in [17] was Active. Also, the Activity entry in data set [14] and in [15] was “Non-Toxic” in each case. In addition, in [18], the Retention time is -0.04 min.

The molecule `CC(=O)N(O)CCCCCNC(=O)CCC(=O)N(O)CCCCCNC(=O)CCC(=O)N(O)CCCCCNC(=O)CC12CC3CC(C)(CC(C)(C3)C1)C2` came in with a logP in data set [1] of 2.17. Besides, the result in data set [2], in [3], in data set [4], in data set [5], in data set [6] and in data set [19] was Active. Besides, the result in data set [20], in data set [11], in data set [12], in data set [13], in data set [16] and in [17] was Active. The pEC50 in data set [10] was 5.24. Further, the Activity entry in [14] and in [15] was “Non-Toxic” each time. Moreover, in [18], the Retention time came to 1.54 min.
